Source: patent US9115073B2, “1,3-diphenylpropane derivatives, preparations and uses thereof” (GENFIT, priority 2011, dated 2015)
Where a name gives a salt, the structure may show the parent alone.

Columns and labels:
hPPARdelta = molecular target: T1, hPPARdelta (Homo sapiens, UniProt Q03181); assay: Gal4-hPPARdelta transactivation assay in COS-7 cells (luciferase); type: cell-based; settings: for Emax: COS-7, maximal relative activation vs reference, read-out: Gal4-hPPARδ(LBD) TOP (% ref); for EC50: Gal4-hPPARδ(LBD) transactivation; for Gal4-hPPARδ(LBD) TOP (% ref): maximal relative activation vs reference
T1 construct: Gal4-hPPARδ(LBD); Gal4 (fusion partner); expressed in transfected cells; host or cells: COS-7 (monkey kidney)
T1 sequence (Q03181 211-439 limits assumed): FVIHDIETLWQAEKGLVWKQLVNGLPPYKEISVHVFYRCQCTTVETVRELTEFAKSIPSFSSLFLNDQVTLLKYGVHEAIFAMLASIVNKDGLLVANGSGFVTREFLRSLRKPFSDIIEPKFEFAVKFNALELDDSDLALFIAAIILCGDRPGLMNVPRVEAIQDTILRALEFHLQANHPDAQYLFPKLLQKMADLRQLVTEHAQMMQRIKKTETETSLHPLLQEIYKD
Procedure: (§1) Monkey kidney COS-7 cells were maintained in standard culture conditions (Dulbecco's modified Eagle's minimal medium: DMEM) supplemented with 10% fetal calf serum, 1% sodium pyruvate, 1% essential amino acids and 1% antibiotics at 37° C. in a humidified atmosphere of 5% C02 and 95% air. The medium was changed every 2 days. All tested compounds were dissolved in DMSO. Cells were transfected using 2 μl JetPEI™ (Polyplus transfection)/μg of DNA. Briefly, 40 μg of DNA was transfected in a 225 cm^2 culture flask of adherent COS-7 cells (respecting the 1/50 ratio between the Gal4(RE)_TkpGL3 plasmid and the plasmid coding the nuclear receptor of interest (pGal4-hPPARalpha, pGal4-hPPARgamma, pGal4-hPPARdelta, pGal4-mPPARalpha, pGal4-mPPARgamma and pGal4-mPPARdelta) or of the pGal4phi plasmid (negative control). Cells were enzymatically detached and seeded in 384 well plates at the density of 20,000 cells/well and then incubated for 4 hours at 37° C. The activation was automatically performed, by using the Genesis Freedom 200™ (Tecan), in fresh medium supplemented with 2% of synthetic serum, free of lipids (Ultroser™, Biosepra) supplemented with the tested compounds (compound of interest or reference molecules) or vehicle (DMSO 0.1%). The luciferase activity was measured with the Steady-Glo Luciferase Assay System (Promega, Madison, Wis.). All transactivation experiments were performed at least 2 times. Activation curves were realized using SigmaPlot® (version 7.0 from SPSS Inc.) software and took into account all the experimental points. SimgaPlot® was also used to fit the standard curves and then determine the specific EC50 values, maximum effect versus reference molecules and Hill slope. The Emax effect of each new ligand is represented as the ratio of the maximal induction (plateau) obtained with the new ligand and the induction obtained with the corresponding reference compound. The reference compounds for PPARalpha, PPARgamma and PPARdelta were fenofibrate (100 μM), rosiglitazone (10 μM) and GW501516 (1 μM).

hPPARgamma = molecular target: T2, hPPARgamma (Homo sapiens, UniProt P37231); assay: Gal4-hPPARgamma transactivation assay in COS-7 cells (luciferase); type: cell-based; settings: for Emax: COS-7, maximal relative activation vs reference, read-out: Gal4-hPPARγ(LBD) TOP (% ref); for EC50: Gal4-hPPARγ(LBD) transactivation; for Gal4-hPPARγ(LBD) TOP (% ref): maximal relative activation vs reference
T2 construct: Gal4-hPPARγ(LBD); Gal4 (fusion partner); expressed in transfected cells; host or cells: COS-7 (monkey kidney)
T2 sequence (P37231 238-503 limits assumed): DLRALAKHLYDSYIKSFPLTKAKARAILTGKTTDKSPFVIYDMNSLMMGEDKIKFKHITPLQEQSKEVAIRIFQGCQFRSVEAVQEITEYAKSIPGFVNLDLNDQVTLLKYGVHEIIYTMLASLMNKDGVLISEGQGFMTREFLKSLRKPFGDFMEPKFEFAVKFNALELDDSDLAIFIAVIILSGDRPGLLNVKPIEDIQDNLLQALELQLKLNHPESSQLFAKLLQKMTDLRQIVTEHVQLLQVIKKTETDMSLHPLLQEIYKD
Procedure: as §1

hPPARalpha = molecular target: T3, hPPARalpha (Homo sapiens, UniProt Q07869); assay: Gal4-hPPARalpha transactivation assay in COS-7 cells (luciferase); type: cell-based; settings: for Emax: COS-7, maximal relative activation vs reference, read-out: Gal4-hPPARα(LBD) TOP (% ref); for EC50: Gal4-hPPARα(LBD) transactivation; for Gal4-hPPARα(LBD) TOP (% ref): maximal relative activation vs reference
T3 construct: Gal4-hPPARα(LBD); Gal4 (fusion partner); expressed in transfected cells; host or cells: COS-7 (monkey kidney)
T3 sequence (Q07869 239-466 limits assumed): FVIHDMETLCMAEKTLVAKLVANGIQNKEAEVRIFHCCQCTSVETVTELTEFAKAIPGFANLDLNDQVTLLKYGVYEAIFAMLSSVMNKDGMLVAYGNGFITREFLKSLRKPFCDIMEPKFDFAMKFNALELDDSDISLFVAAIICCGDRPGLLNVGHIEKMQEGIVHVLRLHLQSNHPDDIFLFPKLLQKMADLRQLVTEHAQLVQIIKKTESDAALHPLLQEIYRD
Procedure: as §1

SMILES	Emax (hPPARdelta)	EC50 (hPPARdelta)	Emax (hPPARgamma)	EC50 (hPPARgamma)	Emax (hPPARalpha)	EC50 (hPPARalpha)	further results
COC(c1ccc(Br)cc1)C1CC1c1cc(C)c(OC(C)(C)C(=O)O)c(C)c1 (racemic) [Cpd 1-1, 2-(4-(2-(methoxy(4-bromophenyl)methyl)cyclopropyl)-2,6-dimethylphenoxy)-2-methylpropanoic acid]	84%	40 nM	68%	44 nM	44%	239 nM	melting point: 133 °C
COC(c1ccc(OC(F)(F)F)cc1)C1CC1c1cc(C)c(OC(C)(C)C(=O)O)c(C)c1 (stereo not shown) [Cpd 14-2-2, 2-(4-(2-(methoxy(4-(trifluoromethoxy)phenyl)methyl)cyclopropyl)-2,6-dimethylphenoxy)-2-methylpropanoic acid]	–	–	–	–	–	–	EC50 (hPPARdelta; listed as cpd 14-2-2): 59 nM; Gal4-hPPARδ(LBD) TOP (% ref) (hPPARdelta; listed as cpd 14-2-2): 57 % ref; Gal4-hPPARγ(LBD) TOP (% ref) (hPPARgamma; listed as cpd 14-2-2): 72 % ref; EC50 (hPPARalpha; listed as cpd 14-2-2): 17 nM
COC(c1ccc(C(F)(F)F)cc1F)C1CC1c1cc(C)c(OC(C)(C)C(=O)O)c(C)c1 (single isomer, unassigned) [Cpd 12-2, 2-(4-(2-(methoxy(2-fluoro-4-(trifluoromethyl)phenyl)methyl)cyclopropyl)-2,6-dimethylphenoxy)-2-methylpropanoic acid]	–	13 nM	–	3 nM	–	90 nM	–
CCCCOC(c1ccc(OC(F)(F)F)cc1)C1CC1c1cc(C)c(OC(C)(C)C(=O)O)c(C)c1 (single isomer, unassigned) [Cpd 5-2, 2-(4-(2-(butyloxy(4-(trifluoromethoxy)phenyl)methyl)cyclopropyl)-2,6-dimethylphenoxy)-2-methylpropanoic acid]	–	57 nM	–	21 nM	–	54 nM	–
COC(c1ccc(SC)cc1)C1CC1c1cc(C)c(OC(C)(C)C(=O)O)c(C)c1 (racemic) [Cpd 3-2, 2-(4-(2-(methoxy(4-(methylthio)phenyl)methyl)cyclopropyl)-2,6-dimethylphenoxy)-2-methylpropanoic acid]	–	–	–	–	–	–	Gal4-hPPARδ(LBD) TOP (% ref) (hPPARdelta): 75 % ref; Gal4-hPPARγ(LBD) TOP (% ref) (hPPARgamma): 65 % ref; Gal4-hPPARα(LBD) TOP (% ref) (hPPARalpha): 42 % ref
CCCCOC(c1ccc(OC(F)(F)F)cc1)C1CC1c1cc(C)c(OC(C)(C)C(=O)O)c(C)c1 (single isomer, unassigned) [Cpd 5-1, 2-(4-(2-(butyloxy(4-(trifluoromethoxy)phenyl)methyl)cyclopropyl)-2,6-dimethylphenoxy)-2-methylpropanoic acid]	62%	34 nM	84%	143 nM	44%	47 nM	–
Cc1cc(C2CC2C(OCCC2CCCCC2)c2ccc(OC(F)(F)F)cc2)cc(C)c1OC(C)(C)C(=O)O (racemic) [Cpd 6-2, 2-(4-(2-(cyclohexylethyloxy(4-(trifluoromethoxy)phenyl)methyl)cyclopropyl)-2,6-dimethylphenoxy)-2-methylpropanoic acid]	–	131 nM	–	34 nM	–	26 nM	Gal4-hPPARδ(LBD) TOP (% ref) (hPPARdelta): 66 % ref; Gal4-hPPARγ(LBD) TOP (% ref) (hPPARgamma): 79 % ref; Gal4-hPPARα(LBD) TOP (% ref) (hPPARalpha): 38 % ref
COC(c1ccc(OC(F)(F)F)cc1)C1CC1c1cc(C)c(OC(C)(C)C(=O)O)c(C)c1 (single isomer, unassigned) (as salt: TFA) [Cpd 14-1-1, 2-(4-(2-(methoxy(4-(trifluoromethoxy)phenyl)methyl)cyclopropyl)-2,6-dimethylphenoxy)-2-methylpropanoic acid]	–	–	–	–	–	–	melting point: 155 to 156 °C
COC(c1ccc(OC(F)(F)F)cc1)C1CC1c1cc(F)c(OC(C)(C)C(=O)O)c(F)c1 (racemic) [Cpd 20-1, 2-(2,6-difluoro-4-(2-(methoxy(4-(trifluoromethoxy)phenyl)methyl)cyclopropyl)phenoxy)-2-methylpropanoic acid]	84%	87 nM	67%	230 nM	50%	143 nM	–
COC(c1ccccc1OC(F)(F)F)C1CC1c1cc(C)c(OC(C)(C)C(=O)O)c(C)c1 (single isomer, unassigned) [Cpd 13-1, 2-(4-(2-(methoxy(2-(trifluoromethyloxy)phenyl)methyl)cyclopropyl)-2,6-dimethylphenoxy)-2-methylpropanoic acid]	59%	328 nM	72%	72 nM	26%	652 nM	–
COC(c1ccc(OC(F)(F)F)cc1)C1CC1c1ccc(OC(C)(C)C(=O)O)c(C2CC2)c1 (racemic) [Cpd 21-1, 2-(2-cyclopropyl-4-(2-(methoxy(4-(trifluoromethoxy)phenyl)methyl)cyclopropyl)phenoxy)-2-methylpropanoic acid]	88%	3270 nM	48%	828 nM	17%	3650 nM	–
COC(c1ccc(OC(F)(F)F)cc1)C1CC1c1cc(C)c(OC(C)(C)C(=O)O)c(C)c1 (single isomer, unassigned) [Cpd 14-2, 2-(4-(2-(methoxy(4-(trifluoromethoxy)phenyl)methyl)cyclopropyl)-2,6-dimethylphenoxy)-2-methylpropanoic acid]	–	30 nM	–	17 nM	–	41 nM	melting point: 190 to 194 °C
